According to PubChem BioAssay AID1996:
≈ marks a conversion by molar mass, not a printed value.

Settings: buffer; pH 7.4; 200.0 µM
Work on `COc1ccc(CNC(=S)NCc2ccc(F)cc2)cc1OC` yielded a solubility kinetic greater than 50.2 µg/mL. `Brc1ccc(OCCN2CCOCC2)cc1` gave a solubility kinetic of 29 µg/mL (≈ 101 µM). `CC(NS(=O)(=O)c1ccccc1)C(=O)NC1CCCC1` (stereo not given) gave a solubility kinetic greater than 44.5 µg/mL. `Cc1ncc([N+](=O)[O-])n1Cc1ccc(Cl)cc1` gave a solubility kinetic of 34.7 µg/mL (≈ 138 µM). Molecule `COc1ccc(OCCC(=O)Nc2ccccc2)cc1` has a solubility kinetic greater than 40.7 µg/mL. Molecule `Cc1cc(C)n2nc(SC(C)C(=O)N3CC(C)OC(C)C3)nc2n1` (stereo not given) has a solubility kinetic greater than 52.4 µg/mL. In the case of `Cc1ccc([N+](=O)[O-])c(NC(=O)COC(=O)C2CC3CCCC(C2)C3=O)c1C` (stereo not given), the solubility kinetic is reported as greater than 58.3 µg/mL. For `COc1ccccc1CNc1cc(C)ccn1`, the solubility kinetic was 28.8 µg/mL (≈ 126 µM). `O=C(Nc1ccon1)c1ccc(S(=O)(=O)N2CCOCC2)cc1` gave a solubility kinetic of 47.4 µg/mL (≈ 141 µM). In the case of `CC(C)n1c(SCC(=O)N2CCCCC2)nc2c1c(=O)n(C)c(=O)n2C`, the solubility kinetic is reported as greater than 56.9 µg/mL. For `CCCCOC(=O)c1ccc(NC(=O)C(=O)NCCN(C)C)cc1`, the solubility kinetic was 45.7 µg/mL (≈ 136 µM). In the case of `COC(=O)c1ccc(COc2ccccc2/C=N/O)o1`, the solubility kinetic is reported as greater than 41.3 µg/mL. `O=C(CN1C(=O)NC2(CCOc3ccccc32)C1=O)NCc1ccccc1` (stereo not given) gave a solubility kinetic greater than 54.8 µg/mL. With `COc1cccc(NC(=O)C2COc3ccccc3O2)c1` (stereo not given) the solubility kinetic was greater than 42.8 µg/mL. With `O=C(COC(=O)c1ccccc1O)NCc1ccc2c(c1)OCO2` the solubility kinetic was 5.7 µg/mL (≈ 17.3 µM). `COc1cc(CNCc2ccccc2)cc(Cl)c1OC.Cl` showed a solubility kinetic of 48.2 µg/mL. In the case of `FC(F)(F)c1ccccc1NC(=S)N1CCCCCC1`, the solubility kinetic is reported as greater than 45.4 µg/mL. In the case of `CCOC(=O)c1ccc(NC(=O)NC2CC3CCC(C2)N3)cc1` (stereo not given), the solubility kinetic is reported as 43.5 µg/mL (≈ 137 µM). Molecule `O=C(COC(=O)c1ccc(Cl)cc1[N+](=O)[O-])NCc1ccco1` has a solubility kinetic greater than 50.8 µg/mL. For `O=C(CCCN1C(=O)/C(=C\c2ccccc2)SC1=S)Nc1ccccc1O`, the solubility kinetic was less than 0.4 µg/mL. Molecule `O=C(Nc1sc2c(c1C(=O)O)CCCC2)c1cccc(Cl)c1` has a solubility kinetic of 45.5 µg/mL (≈ 135 µM). Molecule `Fc1ccc(NC(=S)Nc2cccnc2)c(Cl)c1` has a solubility kinetic greater than 42.3 µg/mL. `CCC(C(=O)NC1CC(C)(C)NC(C)(C)C1)c1ccccc1` (stereo not given) showed a solubility kinetic greater than 45.4 µg/mL. `Cl.O=C1CCC(c2ccccc2)(C2CCN(Cc3ccccc3)CC2)C(=O)N1` (stereo not given) gave a solubility kinetic of 51.4 µg/mL. `CCOC(=O)N1CCN(C(=O)c2cc3cc(Cl)ccc3[nH]2)CC1` gave a solubility kinetic of 7 µg/mL (≈ 20.8 µM). Work on `COc1ccccc1Cn1c(=O)oc2ccc(C)cc21` yielded a solubility kinetic of 2.9 µg/mL (≈ 10.8 µM). With `O=C1c2ccccc2NC(c2cccc(O)c2)N1c1ccccc1` (stereo not given) the solubility kinetic was 2.9 µg/mL (≈ 9.17 µM). For `CC(=O)c1c(COC(=O)c2ccc(F)cc2)nc2ccccc2[n+]1[O-]`, the solubility kinetic was 2.4 µg/mL (≈ 7.05 µM). `CCOP(=O)(OCC)C(NC(=O)Nc1ccc(C)cc1)C(N)=O` (stereo not given) gave a solubility kinetic greater than 51.5 µg/mL. With `O=C(Cc1ccccc1[N+](=O)[O-])Nc1nccs1` the solubility kinetic was 7.3 µg/mL (≈ 27.7 µM). In the case of `COc1ccc(O)c(CN2CCCC(C(=O)c3ccccc3SC)C2)c1` (stereo not given), the solubility kinetic is reported as 17.7 µg/mL (≈ 47.6 µM). For `NC(=O)c1cccnc1OCC(F)(F)F`, the solubility kinetic was greater than 33 µg/mL. With `COc1ccc2c(c1)C(=O)N(c1ccc(C)cc1C)C(=O)C2(C)C` the solubility kinetic was 5.3 µg/mL (≈ 16.4 µM). Molecule `CCCCn1c(SCC(=O)Nc2cc(C)on2)nnc1-c1ccncc1` has a solubility kinetic greater than 55.9 µg/mL. Molecule `CCCn1c(C(=O)c2ccccc2)nc2ccccc21` has a solubility kinetic of 9.7 µg/mL (≈ 36.7 µM). In the case of `Cc1ccc(COC(=O)NCc2cccnc2)cc1`, the solubility kinetic is reported as 35.7 µg/mL (≈ 139 µM). With `COc1ccc(CN2C(=O)COc3ccccc32)cc1` the solubility kinetic was 34.1 µg/mL (≈ 127 µM). Work on `CC(CCc1ccccc1)NC(=O)C1CCC1` (stereo not given) yielded a solubility kinetic greater than 34.7 µg/mL. Molecule `O=C(C1CC(=O)N(c2ccccc2F)C1)N1CCOCC1` (stereo not given) has a solubility kinetic greater than 43.8 µg/mL. With `Cc1nc(SCc2ccc(C(=O)O)cc2)c2c(C)c(C)sc2n1` the solubility kinetic was 49.5 µg/mL (≈ 144 µM). `COc1ccc(CC(=O)NC2CCSc3ccccc32)cc1OC` (stereo not given) showed a solubility kinetic of 0.7 µg/mL (≈ 2.04 µM). `Cc1ccc(C)c(NC(=O)Cc2nc(CNCC(C)C)cs2)c1` showed a solubility kinetic of 47.1 µg/mL (≈ 142 µM). Molecule `CC(=O)Nc1ccc(OC(=O)Cc2ccc(Cl)cc2)cc1` has a solubility kinetic of 1.4 µg/mL (≈ 4.61 µM). In the case of `Cc1cccc(NC(=O)NC2CC3CCC(C2)N3Cc2ccco2)c1` (stereo not given), the solubility kinetic is reported as 11.1 µg/mL (≈ 32.7 µM). `COc1cccc(OCC(=O)Nc2ccncc2)c1` gave a solubility kinetic greater than 38.7 µg/mL. Molecule `NC(=O)COc1cc2oc(=O)c3c(c2cc1Cl)CCCC3` has a solubility kinetic of 7.1 µg/mL (≈ 23.1 µM). Molecule `O=C1CCc2cc(S(=O)(=O)NC3CCCCC3)ccc2N1` has a solubility kinetic greater than 46.3 µg/mL. With `Cc1cccc(C)c1NC(=S)N(CCc1ccncc1)C(C)C` the solubility kinetic was 45.6 µg/mL (≈ 139 µM). For `O=C(CNS(=O)(=O)Cc1ccccc1)NCc1ccccc1`, the solubility kinetic was 12.9 µg/mL (≈ 40.5 µM). `Cc1ccc(/C=N/NC(=O)c2cccnc2)o1` showed a solubility kinetic greater than 34.4 µg/mL. In the case of `Cc1ccc(C)c(NS(=O)(=O)c2csc(C(N)=O)c2)c1`, the solubility kinetic is reported as 36.3 µg/mL (≈ 117 µM). In the case of `CCN(CC)CCCNC(=O)/C=C/C(=O)O`, the solubility kinetic is reported as 31.2 µg/mL (≈ 137 µM). For `COc1cc2c(cc1OC)C(c1ccccc1N)=NCC2`, the solubility kinetic was greater than 42.4 µg/mL. In the case of `COC(=O)CN1C(=O)N/C(=C/c2ccc(OC)c(C)c2OC)C1=O`, the solubility kinetic is reported as 4 µg/mL (≈ 12 µM). For `O=C(Cn1c(=O)oc2ccccc21)Nc1ccc(F)cc1`, the solubility kinetic was 21.8 µg/mL (≈ 76.2 µM). For `Cn1c2ccccc2c2nnc(SCCN3CCOCC3)nc21`, the solubility kinetic was greater than 49.4 µg/mL. For `CCS(=O)(=O)Nc1cc2c3c(c1)CCC(=O)N3CCC2`, the solubility kinetic was greater than 44.2 µg/mL. For `C=CCn1c(O)c(C(CC)=Nc2ccc(C(=O)O)cc2)c(=O)[nH]c1=O`, the solubility kinetic was greater than 51.5 µg/mL. In the case of `O=C1CN(C(=O)/C=C/c2ccccc2F)c2ccccc2N1`, the solubility kinetic is reported as 12.9 µg/mL (≈ 43.5 µM). Work on `CC(=O)c1cccc(OCC(=O)N(C)CC(=O)NCc2ccco2)c1` yielded a solubility kinetic greater than 51.7 µg/mL.
